Experimental data: patent publication US10125098B2, “Therapeutic compounds and methods of use thereof” (GENENTECH, INC., priority 2014, dated 2018)
Counter-ions that a name gives are not always drawn. Like-named read-outs stand apart in the source and are kept apart here.

Tests used:
[1] = molecular target: T1, NaV1.5 (Homo sapiens, UniProt Q14524); test: Patch voltage clamp electrophysiology assay (EP), NaV1.5; assay type: cell-based
T1 construct: permanently transfected with an expression vector containing the full-length cDNA coding for the desired human sodium channel α-subunit; expressed in transfected cells; host or cells: HEK-293
T1 sequence (Q14524 whole entry): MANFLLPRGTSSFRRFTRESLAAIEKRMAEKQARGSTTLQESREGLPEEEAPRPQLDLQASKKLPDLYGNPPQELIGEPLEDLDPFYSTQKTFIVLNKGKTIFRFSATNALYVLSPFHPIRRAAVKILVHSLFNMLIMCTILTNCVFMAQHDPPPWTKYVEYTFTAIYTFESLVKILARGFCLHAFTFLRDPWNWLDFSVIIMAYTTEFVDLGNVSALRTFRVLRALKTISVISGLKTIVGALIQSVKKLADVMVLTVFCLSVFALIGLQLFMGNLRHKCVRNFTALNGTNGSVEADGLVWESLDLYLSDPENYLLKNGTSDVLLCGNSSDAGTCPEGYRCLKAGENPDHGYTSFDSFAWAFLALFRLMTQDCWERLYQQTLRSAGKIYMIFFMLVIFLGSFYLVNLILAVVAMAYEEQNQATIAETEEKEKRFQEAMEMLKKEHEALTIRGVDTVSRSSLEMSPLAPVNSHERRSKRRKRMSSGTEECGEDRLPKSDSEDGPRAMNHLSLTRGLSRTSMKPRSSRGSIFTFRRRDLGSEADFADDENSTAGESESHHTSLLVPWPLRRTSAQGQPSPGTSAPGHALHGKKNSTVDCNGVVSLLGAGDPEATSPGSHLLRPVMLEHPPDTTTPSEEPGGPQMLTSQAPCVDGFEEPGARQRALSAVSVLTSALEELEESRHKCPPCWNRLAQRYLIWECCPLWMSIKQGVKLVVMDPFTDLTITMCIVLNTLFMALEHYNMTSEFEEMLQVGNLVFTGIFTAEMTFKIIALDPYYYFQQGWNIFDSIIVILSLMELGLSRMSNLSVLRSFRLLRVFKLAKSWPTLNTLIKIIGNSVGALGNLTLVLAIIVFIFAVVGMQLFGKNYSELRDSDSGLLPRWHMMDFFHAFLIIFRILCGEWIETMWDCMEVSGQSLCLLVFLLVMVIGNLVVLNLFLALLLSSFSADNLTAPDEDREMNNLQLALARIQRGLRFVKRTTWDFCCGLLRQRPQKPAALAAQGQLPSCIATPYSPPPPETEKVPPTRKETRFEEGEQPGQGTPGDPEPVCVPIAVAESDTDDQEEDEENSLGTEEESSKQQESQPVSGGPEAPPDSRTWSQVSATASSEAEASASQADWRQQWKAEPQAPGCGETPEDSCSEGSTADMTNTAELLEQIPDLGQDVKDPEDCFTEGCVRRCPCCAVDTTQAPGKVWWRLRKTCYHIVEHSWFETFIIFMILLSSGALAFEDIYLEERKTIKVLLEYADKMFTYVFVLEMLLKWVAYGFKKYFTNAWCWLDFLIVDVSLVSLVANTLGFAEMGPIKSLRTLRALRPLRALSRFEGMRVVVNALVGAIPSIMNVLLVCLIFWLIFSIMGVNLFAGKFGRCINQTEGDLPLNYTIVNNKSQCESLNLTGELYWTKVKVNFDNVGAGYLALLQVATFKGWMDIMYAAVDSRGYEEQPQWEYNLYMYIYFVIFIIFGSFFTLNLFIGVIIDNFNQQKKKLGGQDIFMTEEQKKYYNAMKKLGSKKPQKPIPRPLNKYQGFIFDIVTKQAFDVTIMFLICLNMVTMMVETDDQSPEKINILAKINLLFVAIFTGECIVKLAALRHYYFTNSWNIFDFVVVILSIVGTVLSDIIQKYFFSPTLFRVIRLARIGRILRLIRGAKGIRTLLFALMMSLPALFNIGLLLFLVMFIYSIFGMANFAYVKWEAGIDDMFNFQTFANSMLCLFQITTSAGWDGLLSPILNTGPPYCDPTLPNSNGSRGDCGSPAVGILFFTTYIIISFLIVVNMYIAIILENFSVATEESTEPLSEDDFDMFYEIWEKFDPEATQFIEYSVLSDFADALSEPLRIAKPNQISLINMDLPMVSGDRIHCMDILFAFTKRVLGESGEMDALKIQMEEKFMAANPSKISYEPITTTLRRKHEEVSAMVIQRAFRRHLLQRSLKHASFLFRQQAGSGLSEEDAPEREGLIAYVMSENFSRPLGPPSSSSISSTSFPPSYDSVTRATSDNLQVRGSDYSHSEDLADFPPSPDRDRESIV
Method in brief: (§1)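 Percent block is the drop in sodium current after compound wash-on, measured by a test pulse following 20 ms at −150 mV from a −60 mV inactivating holding potential.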

[2] = molecular target: T2, human NaV1.7 (Homo sapiens, UniProt Q15858); test: Patch voltage clamp electrophysiology assay (EP), NaV1.7; assay type: cell-based; conditions: HEK-293 cells stably expressing NaV1.7 with β1 subunit; whole-cell patch clamp, membrane potential −60 mV (inactivated state)
T2 construct: permanently transfected with an expression vector containing the full-length cDNA coding for the desired human sodium channel α-subunit; expressed in transfected cells; host or cells: HEK-293
T2 sequence (Q15858 1-1977 isoform Q15858-3): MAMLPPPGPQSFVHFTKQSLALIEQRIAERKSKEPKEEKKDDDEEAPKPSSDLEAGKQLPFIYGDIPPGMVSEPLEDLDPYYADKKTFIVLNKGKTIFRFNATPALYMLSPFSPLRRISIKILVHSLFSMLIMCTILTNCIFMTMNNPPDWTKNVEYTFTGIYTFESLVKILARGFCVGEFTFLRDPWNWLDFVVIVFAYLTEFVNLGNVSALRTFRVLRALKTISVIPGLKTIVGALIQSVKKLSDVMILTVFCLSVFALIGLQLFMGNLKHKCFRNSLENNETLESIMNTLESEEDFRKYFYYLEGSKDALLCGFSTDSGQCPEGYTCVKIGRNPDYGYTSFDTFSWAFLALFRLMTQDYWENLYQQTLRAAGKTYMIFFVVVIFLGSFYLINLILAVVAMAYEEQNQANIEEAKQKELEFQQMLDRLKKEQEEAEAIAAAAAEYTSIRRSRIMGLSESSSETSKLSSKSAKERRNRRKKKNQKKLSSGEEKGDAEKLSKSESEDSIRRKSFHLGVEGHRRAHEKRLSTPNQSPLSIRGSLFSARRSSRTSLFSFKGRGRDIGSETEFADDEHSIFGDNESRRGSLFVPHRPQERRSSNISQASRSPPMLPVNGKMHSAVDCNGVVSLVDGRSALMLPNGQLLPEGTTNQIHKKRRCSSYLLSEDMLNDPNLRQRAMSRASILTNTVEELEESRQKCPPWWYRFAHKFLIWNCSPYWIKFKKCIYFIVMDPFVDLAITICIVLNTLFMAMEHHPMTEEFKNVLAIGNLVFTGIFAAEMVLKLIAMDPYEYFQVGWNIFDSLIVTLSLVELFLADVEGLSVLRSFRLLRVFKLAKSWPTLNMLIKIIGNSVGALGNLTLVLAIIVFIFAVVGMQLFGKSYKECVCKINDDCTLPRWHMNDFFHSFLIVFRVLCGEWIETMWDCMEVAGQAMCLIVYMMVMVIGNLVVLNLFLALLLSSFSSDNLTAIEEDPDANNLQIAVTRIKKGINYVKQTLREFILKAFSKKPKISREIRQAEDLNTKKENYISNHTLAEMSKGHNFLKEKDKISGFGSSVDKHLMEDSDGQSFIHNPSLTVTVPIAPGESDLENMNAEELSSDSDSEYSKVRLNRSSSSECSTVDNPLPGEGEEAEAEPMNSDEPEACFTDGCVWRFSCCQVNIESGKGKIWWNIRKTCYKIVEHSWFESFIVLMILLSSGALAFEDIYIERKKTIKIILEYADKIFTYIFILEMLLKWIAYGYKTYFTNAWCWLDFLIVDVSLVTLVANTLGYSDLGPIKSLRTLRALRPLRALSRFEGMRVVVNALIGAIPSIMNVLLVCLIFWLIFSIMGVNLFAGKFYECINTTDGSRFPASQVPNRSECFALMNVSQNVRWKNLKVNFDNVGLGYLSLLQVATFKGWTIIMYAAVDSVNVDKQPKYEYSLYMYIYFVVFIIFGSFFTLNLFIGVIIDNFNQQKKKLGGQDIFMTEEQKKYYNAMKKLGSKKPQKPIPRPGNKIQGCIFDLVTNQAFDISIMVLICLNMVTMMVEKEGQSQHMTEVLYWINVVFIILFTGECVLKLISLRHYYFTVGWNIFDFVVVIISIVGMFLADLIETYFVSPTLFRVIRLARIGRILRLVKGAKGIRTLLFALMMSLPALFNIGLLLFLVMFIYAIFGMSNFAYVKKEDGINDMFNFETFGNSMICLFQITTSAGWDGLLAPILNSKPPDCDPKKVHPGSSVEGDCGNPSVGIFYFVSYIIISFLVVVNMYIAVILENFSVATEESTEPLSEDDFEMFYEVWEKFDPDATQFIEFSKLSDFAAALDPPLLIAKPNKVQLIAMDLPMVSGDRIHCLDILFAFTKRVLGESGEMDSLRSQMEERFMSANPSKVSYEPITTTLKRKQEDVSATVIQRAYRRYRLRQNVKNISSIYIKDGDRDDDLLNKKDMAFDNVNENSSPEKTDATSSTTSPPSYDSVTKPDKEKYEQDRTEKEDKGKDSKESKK
T2 sequence (Q07699 19-218 partner): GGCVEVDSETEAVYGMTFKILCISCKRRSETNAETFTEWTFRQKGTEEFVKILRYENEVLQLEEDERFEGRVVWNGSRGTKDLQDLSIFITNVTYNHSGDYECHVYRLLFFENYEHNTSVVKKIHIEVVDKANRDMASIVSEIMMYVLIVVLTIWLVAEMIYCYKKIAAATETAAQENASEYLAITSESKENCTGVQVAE
Method in brief: as §1

[3] = molecular target: T3, hNav1.7 (Homo sapiens, UniProt Q15858); test: Tritiated compound binding (LBA) to membranes from cells expressing hNav1.7 and the β1 subunit, competitive binding; conditions: competitive binding vs 100 pM [3H]compound, 18 h, room temperature, membranes with hNav1.7 and β1 subunit
T3 construct: expressed in transfected cells
T3 sequence (Q15858 1-1977 isoform Q15858-3): as the sequence (Q15858 1-1977 isoform Q15858-3) above
T3 sequence (Q07699 19-218 partner): as the sequence (Q07699 19-218 partner) above
Method in brief: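 Competitive displacement of 100 pM [3H]compound (tritiated methyl analogue of formula (I)) from hNav1.7/β1 membranes, 18 h at room temperature in NaCl/Tris pH 7.4 buffer containing 0.01% BSA. 1 μM unlabeled compound set non-specific binding. Bound label quantified by scintillation after filtration; 4-parameter fit gave IC50.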

[4] = HEK-293 cells stably expressing NaV1.5 with β1 subunit, whole-cell patch clamp, membrane potential −60 mV (inactivated state), read-out: Nav1.5
[5] = human, HEK-293 cells stably expressing human NaV1.5 with β1 subunit, pH 7.4, HEK-293 cells stably expressing NaV1.5 with β1 subunit, whole-cell patch clamp, membrane potential −60 mV (inactivated state)

| Compound | IC50 [2] [nM] | IC50 [3] [nM] | IC50 [1, 4] [nM] | IC50 [1, 5] [nM] | IC50 [1] [nM] |
| --- | --- | --- | --- | --- | --- |
| CC(C)(C)[C@H](NC(=O)c1cc(C2CC2)c(OCC23CC4CC(CC(C4)C2)C3)cc1F)C(=O)O [Example 52, (S)-2-(4-(adamantan-1-ylmethoxy)-5-cyclopropyl-2-fluorobenzamido)-3,3-dimethylbutanoic acid] | 1400 | 98 | 7500 | – | – |
| CC1(COc2cc(F)c(C(=O)N[C@H](C(=O)O)C3CC3)cc2C2CC2)CN([C@H](c2ccccc2)c2cc(Cl)cc(Cl)c2)C1 (single isomer, unassigned) [Example 113] | 610 | 7.6 | 15000 | – | – |
| C[C@@H](c1cc(Cl)cc(Cl)c1)N1CCC(COc2cc(F)c(C(=O)N3CCC[C@H]3C(=O)O)cc2C2CC2)CC1 (single isomer, unassigned) [Example 79a] | 690 | 47 | – | ≥ 30000 | – |
| C[C@@H]1[C@@H](C(=O)O)N(C(=O)c2cc(C3CC3)c(OCC3(F)CCN(Cc4cc(C(F)(F)F)ccc4Cl)CC3)cc2F)C[C@@H]1F [Example 111, (2S,3R,4R)-1-(4-((1-(2-chloro-5-(trifluoromethyl)benzyl)-4-fluoropiperidin-4-yl)methoxy)-5-cyclopropyl-2-fluorobenzoyl)-4-fluoro-3-methylpyrrolidine-2-carboxylic acid] | 230 | 36 | 14000 | – | – |
| O=C(O)[C@@H]1CCN1C(=O)c1cc(C2CC2)c(OCC23CC4CC(CC(C4)C2)C3)cc1F [Example 86, (S)-1-(4-(adamantan-1-ylmethoxy)-5-cyclopropyl-2-fluorobenzoyl)azetidine-2-carboxylic acid] | 1900 | 1600 | 26000 | – | – |
| O=C(c1cc(C2CC2)c(OCC23CC4CC(CC(C4)C2)C3)cc1F)N1CCC[C@H]1c1nnn[nH]1 [Example 54, ((S)-2-(1H-tetrazol-5-yl)pyrrolidin-1-yl)(4-(adamantan-1-ylmethoxy)-5-cyclopropyl-2-fluorophenyl)methanone] | 620 | 58 | 9700 | – | – |
| O=C(O)[C@@H]1CCCN1C(=O)c1cc(C2CC2)c(OC2CCN(Cc3cc(Cl)cc(Cl)c3)CC2)cc1F [Example 112, (S)-1-(5-cyclopropyl-4-(1-(3,5-dichlorobenzyl)piperidin-4-yloxy)-2-fluorobenzoyl)pyrrolidine-2-carboxylic acid] | 2000 | 520 | – | ≥ 30000 | – |
| O=C(O)C[C@H](NC(=O)c1cc(C2CC2)c(OCC23CC4CC(CC(C4)C2)C3)cc1F)C(=O)O [Example 84, (S)-2-(4-(adamantan-1-ylmethoxy)-5-cyclopropyl-2-fluorobenzamido)succinic acid] | 17000 | ≥ 10000 | – | ≥ 30000 | – |
| O=C(O)[C@@H]1CC2(CC2)CN1C(=O)c1cc(C2CC2)c(OCC23CC4CC(CC(C4)C2)C3)cc1F [Example 200, (S)-5-(4-(adamantan-1-ylmethoxy)-5-cyclopropyl-2-fluorobenzoyl)-5-azaspiro[2.4]heptane-6-carboxylic acid] | 790 | 84 | – | – | 12000 |

Second part, led by results:

| IC50 [2] [nM] | IC50 [3] [nM] | Compound | IC50 [1, 4] [nM] | IC50 [1, 5] [nM] | IC50 [1] [nM] |
| --- | --- | --- | --- | --- | --- |
| 3800 | 260 | O=C(N[C@H](C(=O)O)C1CCC1)c1cc(C2CC2)c(OCC23CC4CC(CC(C4)C2)C3)cc1F [Example 170, (2S)-2-[[4-(1-adamantylmethoxy)-5-cyclopropyl-2-fluorobenzoyl]amino]-2-cyclobutyl-acetic acid] | 3700 | – | – |
| 7300 | 3300 | CC(C)[C@@H](C(=O)O)N(C)C(=O)c1cc(C2CC2)c(COc2cc(Cl)cc(OC(F)(F)F)c2)cc1F [Example 187, (S)-2-(4-((3-chloro-5-(trifluoromethoxy)phenoxy)methyl)-5-cyclopropyl-2-fluoro-N-methylbenzamido)-3-methylbutanoic acid] | 11000 | – | – |
| 210 | 82 | CC1[C@H](O)CN(C(=O)c2cc(C3CC3)c(OCC3(F)CCN([C@@H](C)c4cc(Cl)cc(Cl)c4)CC3)cc2F)[C@@H]1C(=O)O (stereo partly drawn) [Example 208, (2S,4S)-1-(5-Cyclopropyl-4-((1-((S)-1-(3,5-dichlorophenyl)ethyl)-4-fluoropiperidin-4-yl)methoxy)-2-fluorobenzoyl)-4-hydroxy-3-methylpyrrolidine-2-carboxylic acid] | 16000 | – | – |
| 1400 | 830 | O=C(O)[C@@H]1CCCN1C(=O)c1cc(Cl)c(COc2cnc(OCC(F)(F)C(F)F)c(Cl)c2)cc1F [Example 180, (S)-1-(5-chloro-4-(((5-chloro-6-(2,2,3,3-tetrafluoropropoxy)pyridin-3-yl)oxy)methyl)-2-fluorobenzoyl)pyrrolidine-2-carboxylic acid] | – | ≥ 30000 | – |
| 8600 | 600 | CC(C)[C@H](NC(=O)c1cc(C2CC2)c(OCC2(F)CCN(Cc3cc(Cl)cc(C(F)(F)F)c3)CC2)cc1F)C(=O)O [Example 216, (4-((1-(3-Chloro-5-(trifluoromethyl)benzyl)-4-fluoropiperidin-4-yl)methoxy)-5-cyclopropyl-2-fluorobenzoyl)-L-valine] | – | ≥ 30000 | – |
| 640 | 35 | O=C(O)[C@@H]1CC(F)(F)CN1C(=O)c1cc(C2CC2)c(OCC23CC4CC(CC(C4)C2)C3)cc1F [Example 160, (2S)-1-[4-(1-adamantylmethoxy)-5-cyclopropyl-2-fluoro-benzoyl]-4,4-difluoro-pyrrolidine-2-carboxylic acid] | 16000 | – | – |
| 1400 | 18 | CC1(COc2cc(F)c(C(=O)N3CCC[C@H]3C(=O)O)cc2C2CC2)CN(C(c2ccccc2)c2cc(Cl)cc(Cl)c2)C1 (stereo partly drawn) [Example 196, (2S)-1-(5-cyclopropyl-4-((1-((3,5-dichlorophenyl)(phenyl)methyl)-3-methylazetidin-3-yl)methoxy)-2-fluorobenzoyl)pyrrolidine-2-carboxylic acid trifluoroacetate] | 13000 | – | – |
| 2400 | 310 | C[C@]1(COc2cc(F)c(C(=O)N3CCC[C@H]3C(=O)O)cc2C2CC2)CCN(Cc2cc(F)cc(Cl)c2)C1 (single isomer, unassigned) [Example 137b] | – | ≥ 30000 | – |
| 2100 | 260 | CC1(C)CCC(C(=O)O)N1C(=O)c1cc(C2CC2)c(OCC23CC4CC(CC(C4)C2)C3)cc1F (stereo not drawn) [Example 147, 1-[4-(1-adamantylmethoxy)-5-cyclopropyl-2-fluoro-benzoyl]-5,5-dimethyl-pyrrolidine-2-carboxylic acid] | 14000 | – | – |
| 900 | 68 | CC1(C)SCN(C(=O)c2cc(C3CC3)c(OCC34CC5CC(CC(C5)C3)C4)cc2F)[C@@H]1C(=O)O [Example 155, (4R)-3-[4-(1-adamantylmethoxy)-5-cyclopropyl-2-fluoro-benzoyl]-5,5-dimethyl-thiazolidine-4-carboxylic acid] | 9300 | – | – |
| 490 | 48 | O=C(O)[C@@H]1CCCN1C(=O)c1cc(C2CC2)c(OCC2CCN([C@H](c3cc(Cl)cc(Cl)c3)C(F)(F)F)CC2)cc1F (single isomer, unassigned) [Example 123a] | 7100 | – | – |
